Experimental data taken from patent US20100286400A1, “CRYSTALLINE SOLVATED FORMS OF (R)-2-[[[3-METHYL-4-(2,2,2-TRIFLUOROETHOXY)-2-PYRIDINYL]METHYL]SULFINYL]-1H-BENZIMIDAZOLE” (TAKEDA PHARMACEUTICAL COMPANY LIMITED, priority 2007, published 2010).
Values belong to the compound of their own block, whether it stands above or below them.

Assays:
Assay type in all cases: physicochemical
[1] = Interconversion slurries of mixtures of forms in aqueous saturated solutions (XRPD); conditions: slurry in water, ambient, additional time beyond 5 days
Method: Mixtures of Forms I, II, III, IV and VI were slurried in aqueous saturated solutions at ambient temperature and up to 40° C. A mixture of Form II and Pattern V material was obtained when the mixture of forms was slurried at ambient temperature for 5 days, despite the absence of Pattern V material as starting material.

[2] = Solubility of crystal forms as a suspension of powder in water (HPLC and XRPD)
Method: The solubilities of Forms I, II, III, IV and VI of (R)-lansoprazole obtained in the above-mentioned Reference Example 1 and Examples were tested as a suspension of power in water at 25° C. for 5 days. The solid samples of each form were tested as-is by HPLC and XRPD without particle size determination. […] The extent of chemical degradation as a function of time was similar for all forms.

[3] = Relationships among Forms of R(+)-lansoprazole under various conditions
Description: The relationships among Forms of R(+)-lansoprazole were studied under various conditions.

form obtained on additional slurry time [1]: converted to Form II
SMILES: Cc1c(OCC(F)(F)F)ccnc1C[S@@+]([O-])c1nc2ccccc2[nH]1 [Pattern V, (R)-2-[[[3-methyl-4-(2,2,2-trifluoroethoxy)-2-pyridinyl]methyl]sulfinyl]-1H-benzimidazole]

SMILES: Cc1c(OCC(F)(F)F)ccnc1C[S@@+]([O-])c1nc2ccccc2[nH]1 [Form I, (R)-2-[[[3-methyl-4-(2,2,2-trifluoroethoxy)-2-pyridinyl]methyl]sulfinyl]-1H-benzimidazole]
XRPD of residual solids after the solubility study ([2]; after 5 days as a suspension in water at 25° C.): a mixture consisting of Form I (major component) and Form II

chemical degradation over time ([2]; suspension in water at 25° C. for 5 days): chemically degraded over time
SMILES: Cc1c(OCC(F)(F)F)ccnc1C[S@@+]([O-])c1nc2ccccc2[nH]1 [Form II, (R)-2-[[[3-methyl-4-(2,2,2-trifluoroethoxy)-2-pyridinyl]methyl]sulfinyl]-1H-benzimidazole]
order of stability in transfer (crystal form conversion) ([3]; according to Experimental Example 2 and 3, most stable first): Form II, Form VI, Form III, Form IV, and Form V, in that order
appearance on heating ([3]; vial purged with nitrogen, heated to 93° C. in an oil bath): Sample had turned brown in up to 45 seconds, removed
